# According to patent US4325947A (priority 1981, dated 1982):
# Where “and” joins values, the source holds several entries; their conditions need not be identical. Equal values may be shown once. Read-outs that look alike come from different tables or passages of the source.
# Key:
# [1] = system: HeLa cells; test: HeLa cells cloning efficiency in vitro, treatment for 24 hours; details: for IC50: read-out: ID50
# [2] = system: L1210 leukemia
# Excerpt: (§1) ^3 Medium survival time of treated animals/medium survival time of […]
# [3] = system: P388 ascitic leukemia; test: Activity against P388 ascitic leukemia in mice, ip
# Experimental: Activity against P388 ascitic leukemia^1
# ^1 Mice were injected ip with 10^6 leukemia cells/mouse. Data of
# ^2 Treatment ip on day 1 after tumor inoculum.
# as §1
# [4] = system: Gross leukemia; test: Activity against disseminated Gross leukemia in mice, i.v. and oral; details: for T/C % (survival time treated/controls × 100) / Toxic deaths: day 1
# Excerpt: as §1
# [5] = system: experimental leukemias; test: In vivo antitumor activity/potency versus doxorubicin (general statements); set-up: species or system mice
# Excerpt: In vivo the compound has been compared to doxorubicin against three different experimental leukemias of mice.
# [6] = Homo sapiens, HeLa, 24 h, read-out: % of controls (HeLa cells cloning efficiency)
smiles,measurement,setting,value
"COc1cccc2c1C(=O)c1c(O)c3c(c(O)c1C2=O)C[C@@](O)(C(=O)CO)C[C@@H]3O[C@H]1C[C@H](N)[C@H](O)[C@H](C)O1 [Doxorubicin, doxorubicin, reference compound]",activity at 0.0031 µg/mL,[1]; [6],102%
same,activity at 0.0062 µg/mL,[1]; [6],68%
same,activity at 0.0125 µg/mL,[1]; [6],44%
same,IC50,"[1]; Homo sapiens, HeLa, 24 h",~10 ng/mL
same,T/C % (survival time treated/controls × 100),[2]; 10 mg/kg iv on day 1,133%
same,Toxic deaths,[2]; 10 mg/kg iv on day 1,0/10
same,T/C % (survival time treated/controls × 100),[2]; 13 mg/kg iv on day 1,150%
same,Toxic deaths,[2]; 13 mg/kg iv on day 1,0/9
same,T/C % (survival time treated/controls × 100),[2]; 16.9 mg/kg iv on day 1,166%
same,Toxic deaths,[2]; 16.9 mg/kg iv on day 1,1/10
same,T/C % (survival time treated/controls × 100),[3]; 4.4 mg/kg ip on day 1,210% and 180%
same,Toxic deaths,[3]; 4.4 mg/kg ip on day 1,0/16
same,T/C % (survival time treated/controls × 100),[3]; 6.6 mg/kg ip on day 1,220% and 190%
same,Toxic deaths,[3]; 6.6 mg/kg ip on day 1,0/16
same,T/C % (survival time treated/controls × 100),[3]; 10.0 mg/kg ip on day 1,225% and 220%
same,Toxic deaths,[3]; 10.0 mg/kg ip on day 1,0/16
same,T/C % (survival time treated/controls × 100),[4]; i.v. 13 mg/kg,200%
same,Toxic deaths,[4]; i.v. 13 mg/kg,0/18
same,Toxic deaths,[4]; i.v. 16.9 mg/kg,0/18
same,T/C % (survival time treated/controls × 100),"[4]; i.v. 16.9 mg/kg, 16.9 mg/kg",233% and 216%
"C[C@H]1C[C@@H](N)C[C@H](O[C@H]2C[C@](O)(C(=O)CO)Cc3c(O)c4c(c(O)c32)C(=O)c2ccccc2C4=O)O1 [XOO-0144, 4-demethoxy-4'-deoxydoxorubicin]","potency relative to doxorubicin, iv",[5]; administered iv,about 10 times
same,"potency in vivo in comparison with doxorubicin (summary, words)",[5]; both i.p. and i.v. administration,more potent in vivo (both i.p. and i.v. administration)
same,potency in vivo relative to doxorubicin,"[5]; in vivo, with reference to doxorubicin",about 10 times
same,activity by oral route,[5],active also when administered orally
same,activity by oral route,[5]; listed as 4-demethoxy-4'-deoxydoxorubicin,active also when given by oral route
same,cytotoxicity relative to doxorubicin,"[1]; HeLa cells cloning efficiency, more cytotoxic than doxorubicin",about 25 times
same,activity at 20 pg/mL,[1]; [6],102%
same,activity at 90 pg/mL,[1]; [6],72%
same,activity at 0.00039 µg/mL,[1]; [6],69%
same,activity at 0.0015 µg/mL,[1]; [6],26%
same,activity at 0.0062 µg/mL,[1]; [6],1%
same,activity at 0.025 µg/mL,[1]; [6],0%
same,IC50,"[1]; Homo sapiens, HeLa, 24 h",~0.4 ng/mL
same,"potency in vitro in comparison with doxorubicin (summary, words)",[1]; in comparison with doxorubicin,more potent in vitro
same,potency in vitro relative to doxorubicin,"[1]; in vitro, with reference to doxorubicin",10-20 times
same,T/C % (survival time treated/controls × 100),[2]; 0.9 mg/kg iv on day 1,183%
same,Toxic deaths,[2]; 0.9 mg/kg iv on day 1,0/10
same,T/C % (survival time treated/controls × 100),[2]; 1.2 mg/kg iv on day 1,191%
same,Toxic deaths,[2]; 1.2 mg/kg iv on day 1,0/10
same,T/C % (survival time treated/controls × 100),[2]; 1.56 mg/kg iv on day 1,116%
same,Toxic deaths,[2]; 1.56 mg/kg iv on day 1,6/10
same,"activity against L1210 leukemia in comparison with doxorubicin (summary, words)",[2]; in comparison with doxorubicin,more active against L1210 leukemia
same,tolerated doses,[2]; iv,0.9 mg/kg and 1.2 mg/kg
same,effectiveness compared with doxorubicin,"[2]; iv, tolerated doses 0.9 and 1.2 mg/kg vs doxorubicin 13 mg/kg",more effective than doxorubicin
same,T/C % (survival time treated/controls × 100),[3]; 0.04 mg/kg ip on day 1,130%
same,T/C % (survival time treated/controls × 100),[3]; 0.12 mg/kg ip on day 1,170%
same,T/C % (survival time treated/controls × 100),[3]; 0.25 mg/kg ip on day 1,205% and 195%
same,T/C % (survival time treated/controls × 100),[3]; 0.5 mg/kg ip on day 1,235%
same,T/C % (survival time treated/controls × 100),[3]; 1 mg/kg ip on day 1,75% and 90%
same,Toxic deaths,[3]; 1 mg/kg ip on day 1,7/16
same,T/C % (survival time treated/controls × 100),[3]; 5 mg/kg ip on day 1,55%
same,Toxic deaths,[3]; 5 mg/kg ip on day 1,8/8
same,optimal doses,[3]; administered ip,0.25 to 0.5 mg/kg
same,"potency relative to doxorubicin, ip","[3]; administered ip, mice bearing P388 ascitic leukemia",10-20 times
same,antitumor activity compared with doxorubicin,"[3]; ip, 0.25-0.5 mg/kg vs doxorubicin from 4 to 10 mg/kg",antitumor activity of the same order of magnitude as that of doxorubicin
same,T/C % (survival time treated/controls × 100),[4]; i.v. 0.35 mg/kg,100%
same,Toxic deaths,[4]; i.v. 0.35 mg/kg,0/8
same,T/C % (survival time treated/controls × 100),[4]; i.v. 0.53 mg/kg,108%
same,Toxic deaths,[4]; i.v. 0.53 mg/kg,0/8
same,T/C % (survival time treated/controls × 100),[4]; i.v. 0.8 mg/kg,116%
same,Toxic deaths,[4]; i.v. 0.8 mg/kg,0/10
same,Toxic deaths,[4]; i.v. 1.2 mg/kg,0/20
same,T/C % (survival time treated/controls × 100),"[4]; i.v. 1.2 mg/kg, 1.2 mg/kg",150% and 208%
same,T/C % (survival time treated/controls × 100),[4]; i.v. 1.8 mg/kg,133%
same,Toxic deaths,[4]; i.v. 1.8 mg/kg,9/10
same,T/C % (survival time treated/controls × 100),[4]; i.v. 2.7 mg/kg,116%
same,Toxic deaths,[4]; i.v. 2.7 mg/kg,10/10
same,T/C % (survival time treated/controls × 100),[4]; oral 2.7 mg/kg,150%
same,Toxic deaths,[4]; oral 2.7 mg/kg,1/8
same,T/C % (survival time treated/controls × 100),[4]; oral 5.4 mg/kg,133%
same,Toxic deaths,[4]; oral 5.4 mg/kg,4/6
same,T/C % (survival time treated/controls × 100),[4]; oral 10.8 mg/kg,100%
same,Toxic deaths,[4]; oral 10.8 mg/kg,5/5
same,activity by oral route,"[4]; oral, Gross leukemia",active also when given by oral route
